Converted amounts (≈) assume the structure as drawn.

Results on 21 molecules are retold here after ChEMBL document CHEMBL4251546, “Discovery and hit-to-lead evaluation of piperazine amides as selective, state-dependent NaV1.7 inhibitors” (Medchemcomm, 2017).

Data set [1] in a line: Thermodynamic solubility of the compound in PBS at pH 7.4. The format is physicochemical. The note with it: read-out: Therm_solubility.
In the next data set the test system is MDR1 (P-gp). In words: Apparent permeability across MDCK cells transfected with MDR1. Format: ADME, cell-based, Canis lupus familiaris. Particulars: dog.
Data set [2] is described as follows: Cmax in mouse at 100 mg/kg, po. The format is ADME, organism-based. Set-up: dose 100 mg/kg, route oral. Particulars: in vivo.
The test system of a further data set is Mus musculus. In words: Unbound Cmax in mouse at 100 mg/kg, po. Particulars: in vivo. The format is ADME, organism-based.
Data set [3] can be described thus: Plasma concentration in C57Bl/6 mouse histamine dichloride-induced pruritus model at 300 mg/kg, po. Format: ADME, organism-based. Particulars: in vivo.

As for `N#Cc1ccc([C@H](C(=O)NCC2CC2)N2CC3CCC(C2)N3C(=O)c2cc(F)ccc2F)cc1`, the solubility thermodynamic in data set [1] worked out at 326 µM (≈ 151 µg/mL).

On to `N#Cc1cc(F)cc(C(=O)N2CCN([C@@H](C(=O)NCc3ccccc3)c3ccccc3)CC2)c1`, for which, in data set [1], the solubility thermodynamic was found to be 248 µM (≈ 113 µg/mL).

As to `O=C(NCc1ccc(C(F)(F)F)nc1)[C@@H](c1ccccc1)N1CCN(C(=O)c2cc(F)cc(F)c2)CC1`, the solubility thermodynamic in data set [1] turned out to be 225 µM (≈ 117 µg/mL).

For `N#Cc1ccc([C@H](C(=O)NCC2CC2)N2CC3CCC(C2)N3C(=O)c2cc(F)cc(F)c2)cc1`, the solubility thermodynamic in data set [1] came to 322 µM (≈ 150 µg/mL).

Regarding `O=C(Nc1ccc(OCC(F)(F)F)nc1)[C@@H](c1ccccc1)N1CCN(C(=O)c2cc(F)cnc2Cl)CC1`, the solubility thermodynamic in data set [1] was 49 µM (≈ 27 µg/mL).

With `O=C(NCC1CC1)[C@@H](c1ccccc1)N1CCN(C(=O)c2cc(F)cc(F)c2)CC1`, the solubility thermodynamic in data set [1] came out at 472 µM (≈ 195 µg/mL).

Take `O=C(NCc1ccccc1)[C@@H](c1ccccc1)N1CCN(C(=O)c2cc(F)cc(F)c2)CC1`: the solubility thermodynamic in data set [1] is 137 µM (≈ 61.6 µg/mL).

For `O=C(NCC(F)(F)C1CC1)[C@@H](c1ccccc1)N1CCN(C(=O)c2cc(F)cc(F)c2)CC1`, the solubility thermodynamic in data set [1] is 346 µM (≈ 160 µg/mL).

Regarding `N#Cc1ccc([C@H](C(=O)NCc2ccccc2)N2CCN(C(=O)c3cc(F)cc(F)c3)CC2)cc1`, the solubility thermodynamic in data set [1] amounted to 74 µM (≈ 35.1 µg/mL).

A word on the Papp: it is a coefficient for how fast a substance crosses the barrier. With `O=C(NCc1ccccc1)[C@@H](c1ccccc1)N1CCN(Cc2ccccc2)CC1`, the solubility thermodynamic in data set [1] was 19 µM (≈ 7.59 µg/mL). Also, the Papp in the data set with MDR1 (P-gp) worked out at 24 ×10⁻⁶ cm/s.

A word on the Cmax: it is the highest concentration seen after dosing. In the case of `O=C(NCc1ccccc1)[C@@H](c1ccccc1)N1CCN(C(=O)c2cc(F)ccc2Cl)CC1`, the solubility thermodynamic in data set [1] worked out at 96 µM (≈ 44.7 µg/mL). Besides, the Papp in the data set on MDR1 (P-gp) worked out at 36 ×10⁻⁶ cm/s. The molecule further displayed a Cmax in data set [2] of 4.3 µM. Further, the fCmax in the data set with Mus musculus worked out at 0.16 µM. In data set [3], this molecule displayed a concentration of 22 µM.

As to `N#Cc1cc(F)cc(C(=O)N2CCN([C@@H](C(=O)NCC(F)(F)C3CC3)c3ccccc3)CC2)c1`, in data set [1], the solubility thermodynamic turned out to be 405 µM (≈ 191 µg/mL). This molecule showed a Cmax in data set [2] of 12.8 µM. This molecule registered a fCmax in the data set with Mus musculus of 1.66 µM.

For `O=C(NCc1ccccc1)[C@@H](c1ccccc1)N1CCN(C(=O)c2cc(F)cnc2Cl)CC1`, in data set [1], the solubility thermodynamic came out at 454 µM (≈ 212 µg/mL).

For `O=C(NCc1ccccc1)[C@@H](c1ccccc1)N1CC2CC(C1)N2C(=O)c1cc(F)ccc1Cl`, the solubility thermodynamic in data set [1] came out at 83 µM (≈ 39.7 µg/mL).

On to `N#Cc1ccc([C@H](C(=O)NCC(F)(F)C2CC2)N2CCN(C(=O)c3cc(F)ccc3Cl)CC2)cc1`, for which the solubility thermodynamic in data set [1] was found to be 154 µM (≈ 77.8 µg/mL). In addition, in data set [2], the highest level (Cmax) was 29.8 µM. Besides, the fCmax in the data set with Mus musculus came to 3.28 µM.

With `O=C(NCc1ccccc1)[C@@H](c1ccccc1)N1CC2CCC(C1)N2C(=O)c1cc(F)ccc1Cl`, the solubility thermodynamic in data set [1] turned out to be 35 µM (≈ 17.2 µg/mL).

`COc1cc([C@H](C(=O)NCc2ccccc2)N2CCN(C(=O)c3cc(F)cc(F)c3)CC2)ccc1C#N`: in data set [1], the solubility thermodynamic came out at 30 µM (≈ 15.1 µg/mL).

For `N#Cc1ccc([C@H](C(=O)Nc2ccc(OCC(F)(F)F)nc2)N2CCN(C(=O)c3cc(F)cc(F)c3)CC2)cc1`, the solubility thermodynamic in data set [1] was determined as 15 µM (≈ 8.39 µg/mL).

For `N#Cc1cc(OC(F)(F)F)cc(C(=O)N2CCN([C@@H](C(=O)NCc3ccccc3)c3ccccc3)CC2)c1`, the solubility thermodynamic in data set [1] came out at 44 µM (≈ 23 µg/mL).

As to `O=C(Nc1ccc(OCC(F)(F)F)nc1)[C@@H](c1ccccc1)N1CCN(C(=O)c2cc(F)cc(F)c2)CC1`, in data set [1], the solubility thermodynamic was 19 µM (≈ 10.2 µg/mL).

Take `CN(Cc1ccccc1)C(=O)[C@@H](c1ccccc1)N1CCN(C(=O)c2cc(F)cc(F)c2)CC1`: the solubility thermodynamic in data set [1] turned out to be 220 µM (≈ 102 µg/mL).
